This assay has as its system BDF1 mice, P388 leukemia ip, median survival T/C. Put plainly: NCI In Vivo Anticancer Drug Screen. Data for tumor model P388 Leukemia (intraperitoneal) in B6D2F1 (BDF1) mice. The note with it: endpoint: median survival time, higher = longer survival. Summed up:
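Vehicle-dosed animals serve as the reference; survival of compound-dosed, tumour-implanted mice is divided by it.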

Setting [1] is: dose: 100.0 mg/kg/injection, schedule: Q01DX009 (ip), vehicle: saline with Tween-80.
[2] abbreviates: dose: 200.0 mg/kg/injection, schedule: Q01DX009 (ip), vehicle: saline with Tween-80.
Setting [3] is: dose: 400.0 mg/kg/injection, schedule: Q01DX009 (ip), vehicle: saline with Tween-80.
[4] abbreviates: dose: 100.0 mg/kg/injection, schedule: Q04DX003 (ip), vehicle: Klucel (hydroxypropylcellulose) (HPC).
The mark [5] stands for this setting: dose: 200.0 mg/kg/injection, schedule: Q04DX003 (ip), vehicle: Klucel (hydroxypropylcellulose) (HPC).
[6] abbreviates: dose: 400.0 mg/kg/injection, schedule: Q04DX003 (ip), vehicle: Klucel (hydroxypropylcellulose) (HPC).
Setting [7] is: dose: 50.0 mg/kg/injection, schedule: Q01DX009 (ip), vehicle: saline.
The mark [8] stands for this setting: dose: 50.0 mg/kg/injection, schedule: Q01DX009 (ip), vehicle: saline with Tween-80.
[9] abbreviates: dose: 25.0 mg/kg/injection, schedule: Q01DX009 (ip), vehicle: Klucel (hydroxypropylcellulose) (HPC).
Where [10] appears, read: dose: 50.0 mg/kg/injection, schedule: Q01DX009 (ip), vehicle: Klucel (hydroxypropylcellulose) (HPC).
Setting [11] is: dose: 100.0 mg/kg/injection, schedule: Q01DX009 (ip), vehicle: Klucel (hydroxypropylcellulose) (HPC).
Setting [12] is: dose: 100.0 mg/kg/injection, schedule: Q04DX003 (ip), vehicle: saline.
The mark [13] stands for this setting: dose: 200.0 mg/kg/injection, schedule: Q04DX003 (ip), vehicle: saline.
[14] abbreviates: dose: 100.0 mg/kg/injection, schedule: Q01DX009 (ip), vehicle: saline.
The mark [15] stands for this setting: dose: 200.0 mg/kg/injection, schedule: Q01DX009 (ip), vehicle: saline.
[16] abbreviates: dose: 100.0 mg/kg/injection, schedule: Q04DX003 (ip), vehicle: saline with Tween-80.
Setting [17] is: dose: 200.0 mg/kg/injection, schedule: Q04DX003 (ip), vehicle: saline with Tween-80.
The mark [18] stands for this setting: dose: 400.0 mg/kg/injection, schedule: Q04DX003 (ip), vehicle: saline with Tween-80.

Structures are written as SMILES. “And” between values parts separate entries of the source, which are not always exact repeats. Identical values can stand only once. Toxic doses and inconclusive results are not listed.

Turning to `CCN(CC)CCCCCCNc1cc(OC)c(OC)c2c(C)ccnc12`, the T/C is, setting by setting: (dose: 3.13 mg/kg/injection, schedule: Q01DX009 (ip), vehicle: saline) 102 % of control; (dose: 6.25 mg/kg/injection, schedule: Q01DX009 (ip), vehicle: saline) 109 % of control.
Regarding `Cc1cccc(C(=O)O)[n+]1[O-]`, the T/C by setting is: under setting [1], 95 % of control; under setting [2], 90 % of control; under setting [3], 90 % of control.
Turning to `CCc1ccccc1NC(=O)c1ccccc1Cl`, the T/C is 109 % of control (dose: 100.0 mg/kg/injection, schedule: Q04DX003 (ip), vehicle: other); 104 % of control (dose: 200.0 mg/kg/injection, schedule: Q04DX003 (ip), vehicle: other); 90 % of control (dose: 400.0 mg/kg/injection, schedule: Q04DX003 (ip), vehicle: other).
As for `CC(C)OC(=O)Oc1cccc2c1C(=O)c1ccccc1C2=O`, the T/C by setting is: under setting [4], 104 % of control; under setting [5], 108 % of control; under setting [6], 104 % of control.
Turning to `COc1cc(NCCCCC(C)N)c2nccc(C)c2c1` (stereo unspecified), the T/C under setting [7] was 105 % of control.
`Clc1nc(Cl)c(Nc2ccn[nH]2)nc1Cl`: the T/C reads like this: under setting [8], 100 % of control; under setting [1], 95 % of control and 100 % of control; under setting [2], 100 % of control; under setting [3], 95 % of control.
Regarding `O=Cc1ccc(N(c2ccccc2)c2ccccc2)cc1`, the T/C is 111 % of control under setting [4], 111 % of control under setting [5] and 94 % of control under setting [6].
For `CCOC(=O)c1c(N)sc2c1CCCCC2`, the T/C under setting [1] was 100 % of control, the T/C under setting [2] was 95 % of control and the T/C under setting [3] is 110 % of control.
For `CC(=O)O[C@H]1CC[C@H]2[C@@H]3CC[C@H]4CC=C(C#N)C[C@]4(C)[C@H]3CC[C@]12C`, the T/C (dose: 0.75 mg/kg/injection, schedule: Q01DX009 (ip), vehicle: Klucel (hydroxypropylcellulose) (HPC)) was 95 % of control; the T/C (dose: 1.5 mg/kg/injection, schedule: Q01DX009 (ip), vehicle: Klucel (hydroxypropylcellulose) (HPC)) is 92 % of control and 100 % of control; the T/C (dose: 3.0 mg/kg/injection, schedule: Q01DX009 (ip), vehicle: Klucel (hydroxypropylcellulose) (HPC)) was 104 % of control; the T/C (dose: 6.0 mg/kg/injection, schedule: Q01DX009 (ip), vehicle: Klucel (hydroxypropylcellulose) (HPC)) was 103 % of control; the T/C under setting [9] was 88 % of control; the T/C under setting [10] is 100 % of control. For the same compound, the T/C reads like this: under setting [11], 95 % of control; under setting [4], 109 % of control; (dose: 200.0 mg/kg/injection, schedule: Q01DX009 (ip), vehicle: Klucel (hydroxypropylcellulose) (HPC)) 100 % of control; under setting [5], 109 % of control; under setting [6], 86 % of control.
As for `C/C(=C\c1ccc(C)cc1)[N+](=O)[O-]`, the T/C is 95 % of control (dose: 17.5 mg/kg/injection, schedule: Q01DX010 (ip), vehicle: saline); 86 % of control (dose: 35.0 mg/kg/injection, schedule: Q01DX010 (ip), vehicle: saline); 90 % of control (dose: 70.0 mg/kg/injection, schedule: Q01DX010 (ip), vehicle: saline).
On to `CC(C)=CCc1c(O)ccc(C(=O)/C=C/c2ccccc2)c1O`, for which the T/C (dose: 3.12 mg/kg/injection, schedule: Q01DX009 (ip), vehicle: Klucel (hydroxypropylcellulose) (HPC)) was 102 % of control; the T/C (dose: 6.25 mg/kg/injection, schedule: Q01DX009 (ip), vehicle: Klucel (hydroxypropylcellulose) (HPC)) is 106 % of control; the T/C (dose: 12.5 mg/kg/injection, schedule: Q01DX009 (ip), vehicle: Klucel (hydroxypropylcellulose) (HPC)) is 116 % of control; the T/C under setting [9] is 100 % of control; the T/C under setting [10] is 90 % of control; the T/C under setting [11] is 90 % of control.
As for `NNC(=O)c1ccncc1`, the T/C is, setting by setting: under setting [7], 110 % of control; (dose: 50.0 mg/kg/injection, schedule: Q04DX003 (ip), vehicle: saline) 105 % of control; under setting [12], 105 % of control; under setting [13], 100 % of control.
Regarding `CC/C(=N\NS(=O)(=O)c1ccc(C)cc1)c1ccc(OC)cc1`, the T/C is, setting by setting: under setting [7], 92 % of control; under setting [14], 104 % of control; under setting [15], 93 % of control.
Consider `CCOC(=O)/C(Cc1cnc2ccccc2n1)=N\O`, for which the T/C is 95 % of control under setting [16], 100 % of control under setting [17] and 100 % of control under setting [18].
For the compound `Cc1cccc(C(=O)CC(O)(C(F)(F)F)C(F)(F)F)c1`, the T/C by setting is: (dose: 100.0 mg/kg/injection, schedule: Q01DX001 (ip), vehicle: saline with Tween-80) 104 % of control; (dose: 200.0 mg/kg/injection, schedule: Q01DX001 (ip), vehicle: saline with Tween-80) 100 % of control; (dose: 400.0 mg/kg/injection, schedule: Q01DX001 (ip), vehicle: saline with Tween-80) 109 % of control.
For `CC(C)C1(C(=O)O)SCCCS1`, the T/C is 115 % of control (dose: 50.0 mg/kg/injection, schedule: Q04DX003 (ip), vehicle: alcohol); 115 % of control (dose: 100.0 mg/kg/injection, schedule: Q04DX003 (ip), vehicle: alcohol); 105 % of control (dose: 200.0 mg/kg/injection, schedule: Q04DX003 (ip), vehicle: alcohol); 105 % of control (dose: 400.0 mg/kg/injection, schedule: Q04DX003 (ip), vehicle: alcohol).
As for `CCOC(=O)C(C)C(OCC)OCC` (stereo unspecified), the T/C under setting [1] is 95 % of control; the T/C under setting [16] was 100 % of control; the T/C under setting [2] was 109 % of control; the T/C under setting [17] is 91 % of control; the T/C under setting [3] is 109 % of control; the T/C under setting [18] is 100 % of control.
Take `CCOC(=O)C1(C(C)C)OC2CCCCCN2C1=O` (stereo unspecified): the T/C is 100 % of control (dose: 50.0 mg/kg/injection, schedule: Q04DX003 (ip), vehicle: saline with Tween-80); 108 % of control under setting [16]; 100 % of control under setting [17]; 108 % of control under setting [18].
With `O=C(O)C1C(C(=O)O)C2(Cl)C(Cl)=C(Cl)C1(Cl)C2(Cl)Cl.[Co]` (stereo unspecified), the T/C under setting [9] is 100 % of control and the T/C under setting [10] was 100 % of control.
With `CCNc1c([N+](=O)[O-])cc(S(=O)(=O)O)cc1[N+](=O)[O-]`, the T/C is 100 % of control (dose: 50.0 mg/kg/injection, schedule: Q04DX003 (ip), vehicle: saline sonified); 104 % of control (dose: 100.0 mg/kg/injection, schedule: Q04DX003 (ip), vehicle: saline sonified); 104 % of control (dose: 200.0 mg/kg/injection, schedule: Q04DX003 (ip), vehicle: saline sonified).
With `O=S(=O)(O)c1ccc(O)cc1`, the T/C is 92 % of control under setting [14]; 105 % of control under setting [12]; 88 % of control under setting [15]; 115 % of control under setting [13]; 110 % of control (dose: 400.0 mg/kg/injection, schedule: Q04DX003 (ip), vehicle: saline).
Consider `OC1(CSc2ccccc2)CCCCC1`, for which the T/C under setting [8] is 111 % of control; the T/C under setting [1] is 116 % of control and 119 % of control; the T/C under setting [2] was 116 % of control; the T/C under setting [3] was 122 % of control.
Turning to `Cc1ccc(NC(=O)NCCCOc2ccc(N3C(N)=NC(N)=NC3(C)C)cc2Cl)cc1S(=O)(=O)F`, the T/C was 100 % of control (dose: 45.0 mg/kg/injection, schedule: Q04DX003 (ip), vehicle: saline); 155 % of control under setting [7]; 109 % of control (dose: 65.0 mg/kg/injection, schedule: Q04DX003 (ip), vehicle: saline); 150 % of control and 155 % of control (dose: 75.0 mg/kg/injection, schedule: Q01DX009 (ip), vehicle: saline); 122 % of control under setting [12]; 160 % of control (dose: 110.0 mg/kg/injection, schedule: Q01DX009 (ip), vehicle: saline). Also, the T/C (dose: 150.0 mg/kg/injection, schedule: Q01DX009 (ip), vehicle: saline) is 90 % of control and the T/C under setting [13] was 186 % of control.

The values are drawn from PubChem BioAssay AID328 (DTP/NCI, 2004).
